Source: ChEMBL document CHEMBL1147531, “Farnesyloxycoumarins, a new class of squalene-hopene cyclase inhibitors” (Bioorg Med Chem Lett, 2004)

Biological target: T1, Squalene--hopene cyclase (Alicyclobacillus acidocaldarius subsp. acidocaldarius (strain ATCC27009 / DSM 446 / 104-1A) (Bacillus acidocaldarius), UniProt P33247)
T1 sequence (P33247 whole entry): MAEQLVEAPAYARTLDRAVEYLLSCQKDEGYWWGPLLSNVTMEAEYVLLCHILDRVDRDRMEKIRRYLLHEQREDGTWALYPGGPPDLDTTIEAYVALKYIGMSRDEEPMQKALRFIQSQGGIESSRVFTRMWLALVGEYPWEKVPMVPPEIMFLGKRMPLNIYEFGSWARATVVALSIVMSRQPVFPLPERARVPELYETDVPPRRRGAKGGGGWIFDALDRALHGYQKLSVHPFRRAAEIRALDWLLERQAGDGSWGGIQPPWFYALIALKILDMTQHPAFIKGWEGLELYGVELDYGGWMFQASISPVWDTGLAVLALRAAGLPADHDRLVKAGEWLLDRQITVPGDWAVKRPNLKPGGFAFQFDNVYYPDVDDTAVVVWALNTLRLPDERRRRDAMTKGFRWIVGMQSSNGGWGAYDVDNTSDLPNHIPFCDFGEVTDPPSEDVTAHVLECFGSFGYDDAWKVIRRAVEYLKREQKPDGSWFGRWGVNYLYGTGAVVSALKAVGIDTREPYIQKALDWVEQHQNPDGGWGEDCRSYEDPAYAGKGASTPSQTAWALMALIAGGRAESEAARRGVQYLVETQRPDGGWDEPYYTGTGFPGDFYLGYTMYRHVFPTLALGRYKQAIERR
Assay: Inhibitory activity against squalene hopene cyclase from Alicyclobacillus acidocaldarius expressed in Escherichia coli at a concentration of 100 uM; n.a. = not active; call rule not given here

Row | SMILES | IC50
1 | C=C1CC[C@@H]2C(C)(C)C(=O)CC[C@@]2(C)[C@@H]1COc1ccc2ccc(=O)oc2c1 | Not Active
2 | C=C1CC[C@@H]2C(C)(C)[C@H](O)CC[C@@]2(C)[C@@H]1COc1ccc2ccc(=O)oc2c1 | Not Active
3 | CC1(C)[C@H]2CC[C@](C)(O)[C@@H](COc3ccc4ccc(=O)oc4c3)[C@]2(C)CC[C@@H]1O | Not Active
4 | CC(=O)O[C@H]1CC[C@]2(C)[C@H](CC[C@](C)(O)[C@H]2COc2ccc3ccc(=O)oc3c2)C1(C)C | Not Active
5 | CC(C)=CCC/C(C)=C/CC/C(C)=C/COc1cc(=O)oc2ccccc12 | Not Active
6 | CC(C)=CCC/C(C)=C/CC/C(C)=C/Cc1c(O)oc2cc(O)ccc2c1=O | Not Active
7 | CC1(C)C(=O)CC[C@]2(C)[C@@H]1CC[C@](C)(O)[C@H]2COc1ccc2ccc(=O)oc2c1 | Not Active

Biological target: T2, Squalene--hopene cyclase (Alicyclobacillus acidocaldarius subsp. acidocaldarius (strain ATCC27009 / DSM 446 / 104-1A) (Bacillus acidocaldarius)) (UniProt P33247)
T2 sequence (whole entry): T1 sequence (P33247 whole entry)
Assay: IInhibitory activity against squalene hopene cyclase from Alicyclobacillus acidocaldarius expressed in Escherichia coli at a concentration of 100 uM

Row | SMILES | inhibition [%]
8 | CC(=O)Oc1ccc2c(OC(C)=O)c(C/C=C(\C)CCC3OC3(C)CCC3OC3(C)C)c(=O)oc2c1 (centres undefined) | 38

Biological target: T2, Squalene--hopene cyclase (Alicyclobacillus acidocaldarius subsp. acidocaldarius (strain ATCC27009 / DSM 446 / 104-1A) (Bacillus acidocaldarius))
Assay: Inhibitory activity against squalene hopene cyclase from Alicyclobacillus acidocaldarius expressed in Escherichia coli at a concentration of 100 uM

Row | SMILES | inhibition [%]
9 | C/C(=C\COc1cc(=O)oc2ccccc12)CC/C=C(\C)CCC1OC1(C)C (centres undefined) | 40
10 | CC(=O)Oc1cc2ccc(=O)oc2cc1OC/C=C(\C)CC/C=C(\C)CCC1OC1(C)C (centres undefined) | 46
11 | CC(=O)Oc1cc2ccc(=O)oc2cc1OC/C=C(\C)CCC1OC1(C)CCC1OC1(C)C (centres undefined) | 7

Biological target: T1, Squalene--hopene cyclase
Assay: Inhibitory activity against squalene hopene cyclase from Alicyclobacillus acidocaldarius expressed in Escherichia coli

Row | SMILES | IC50 [µM]
12 | C/C(=C\COc1ccc2ccc(=O)oc2c1)CC/C=C(\C)CCC1OC1(C)C (centres undefined) | 2.5
13 | C/C(=C\COc1ccc2ccc(=O)oc2c1)CC/C=C(\C)CCC(O)C(C)(C)O (centres undefined) | 65
14 | C/C(=C\COc1ccc2ccc(=O)oc2c1)CCC1OC1(C)CCC1OC1(C)C (centres undefined) | 1.5
15 | CC(=O)Oc1ccc2c(OC(C)=O)c(C/C=C(\C)CC/C=C(\C)CCC3OC3(C)C)c(=O)oc2c1 (centres undefined) | 100
16 | C/C(=C\COc1ccc2ccc(=O)oc2c1)CC[C@H]1C2(C)CC[C@@H](O2)C1(C)C (single isomer, unassigned) [FARNESIFEROL C] | 7
17 | CC(C)=CCC/C(C)=C/CC/C(C)=C/COc1ccc2ccc(=O)oc2c1 [UMBELLIPRENIN] | 70
18 | CC(C)=CCC/C(C)=C/CC/C(C)=C/Cc1c(O)c2ccccc2oc1=O | 90
19 | C/C(=C\COc1cc2oc(=O)ccc2cc1O)CC/C=C(\C)CCC1OC1(C)C (centres undefined) | 67
